Measurements published in ChEMBL document CHEMBL4420076, “Amylin and calcitonin receptor agonist” (2017).
Numbered stars: 1 amine (or outer) side, 2 acyl side, 3 side chain; on linkers, the order of the positions; unused ones are H or OH. Peptide text beside a SMILES is read from it. * marks the point of attachment. C20 diacid = O=C(O)CCCCCCCCCCCCCCCCCCC(=O)*; C18 diacid = O=C(O)CCCCCCCCCCCCCCCCC(=O)*; γGlu = O=C(O)[C@H](CCC(=O)[*:2])N[*:1]

Tests used:
[1] = target: T1, Amylin receptor AMY3; CALCR/RAMP3 (Homo sapiens, UniProt O60896+P30988); assay: Displacement of [125I]-labeled rat amylin from human amylin receptor expressed in BHK tkts13 whole cells co-expressing RAMP3 incubated for 60 mins by scintillation proximity assay; format: cell-based
T1 sequence (P30988 whole entry): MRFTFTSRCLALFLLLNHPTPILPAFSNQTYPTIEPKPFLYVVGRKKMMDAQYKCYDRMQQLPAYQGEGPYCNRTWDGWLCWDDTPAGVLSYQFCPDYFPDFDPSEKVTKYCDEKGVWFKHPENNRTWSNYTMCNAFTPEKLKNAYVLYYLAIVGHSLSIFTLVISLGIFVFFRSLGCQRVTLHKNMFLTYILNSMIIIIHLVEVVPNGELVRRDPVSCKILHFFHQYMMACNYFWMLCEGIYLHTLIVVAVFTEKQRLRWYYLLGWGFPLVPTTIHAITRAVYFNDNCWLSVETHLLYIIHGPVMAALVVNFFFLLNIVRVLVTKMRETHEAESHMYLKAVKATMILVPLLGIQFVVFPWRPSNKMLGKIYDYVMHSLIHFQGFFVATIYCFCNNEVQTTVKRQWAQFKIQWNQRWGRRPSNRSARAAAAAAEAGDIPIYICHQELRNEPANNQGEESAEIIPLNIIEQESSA
T1 sequence (O60896 whole entry): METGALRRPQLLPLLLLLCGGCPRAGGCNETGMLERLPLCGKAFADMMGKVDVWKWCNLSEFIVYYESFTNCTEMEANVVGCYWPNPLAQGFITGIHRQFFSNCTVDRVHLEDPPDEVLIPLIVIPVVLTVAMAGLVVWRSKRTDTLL

[2] = target: T1, Amylin receptor AMY3; CALCR/RAMP3; assay: Agonist activity at human amylin receptor expressed in BHK570 cells co-expressing RAMP3 assessed as increase in intracellular cAMP concentration incubated for 3 hrs in absence of albumin by CRE luciferase reporter gene assay; format: functional, cell-based
[3] = Solubility in 100 mM glycylglycine buffer at pH 3.0 incubated for 18 hrs by UPLC analysis; format: physicochemical
[4] = Solubility in 100 mM bistrispropane buffer at pH 6.0 incubated for 18 hrs by UPLC analysis; format: physicochemical
[5] = Solubility in 100 mM bistrispropane buffer at pH 6.5 incubated for 18 hrs by UPLC analysis; format: physicochemical
[6] = Solubility in 100 mM bistrispropane buffer at pH 7.0 incubated for 18 hrs by UPLC analysis; format: physicochemical
[7] = Solubility in 100 mM bistrispropane buffer at pH 7.5 incubated for 18 hrs by UPLC analysis; format: physicochemical
[8] = Solubility in 100 mM bistrispropane buffer at pH 8.0 incubated for 18 hrs by UPLC analysis; format: physicochemical
Calcitonin receptor [9] = target: T2, Calcitonin receptor (Homo sapiens, UniProt P30988); assay: Agonist activity at human calcitonin receptor expressed in BHK570 cells assessed as increase in intracellular cAMP concentration incubated for 3 hrs in absence of albumin by CRE luciferase reporter gene assay; format: functional, cell-based
T2 sequence (P30988 whole entry): T1 sequence (P30988 whole entry)

[10] = Solubility in 100 mM glycylglycine buffer at pH 4.0 incubated for 18 hrs by UPLC analysis; format: physicochemical
[11] = Solubility in 100 mM glycylglycine buffer at pH 5.0 incubated for 18 hrs by UPLC analysis; format: physicochemical
Calcitonin receptor [12] = target: T2, Calcitonin receptor; assay: Agonist activity at human calcitonin receptor expressed in BHK570 cells assessed as increase in intracellular cAMP concentration incubated for 3 hrs in presence of 10% FBS by CRE luciferase reporter gene assay; format: functional, cell-based

Row | IC50 [1] [pM] | EC50 [2] [pM] | solubility at 18 h [3] [µM] | solubility at 18 h [4] [µM] | solubility at 18 h [5] [µM] | solubility at 18 h [6] [µM] | solubility at 18 h [7] [µM] | solubility at 18 h [8] [µM] | EC50 (Calcitonin receptor [9]) [pM] | solubility at 18 h [10] [µM] | solubility at 18 h [11] [µM] | EC50 (Calcitonin receptor [12]) [pM] | Structure (SMILES)
1 | 294000 |  |  |  |  |  |  |  |  |  |  |  | CC(C)C[C@H](NC(=O)[C@H](C)NC(=O)[C@H](C)NC(=O)[C@@H](NC(=O)[C@H](CO)NC(=O)[C@H](CC(C)C)NC(=O)[C@H](CCC(=O)O)NC(=O)[C@H](CO)NC(=O)[C@H](C)NC(=O)[C@@H](N)CCC(=O)O)[C@@H](C)O)C(=O)NCC(=O)N[C@@H](CCCNC(=N)N)C(=O)N[C@@H](CC(C)C)C(=O)N[C@@H](CO)C(=O)N[C@@H](C)C(=O)N[C@@H](CCC(=O)O)C(=O)N[C@@H](CC(C)C)C(=O)N[C@@H](Cc1cnc[nH]1)C(=O)N[C@@H](CCC(=O)O)C(=O)N[C@@H](CC(C)C)C(=O)N[C@@H](C)C(=O)N[C@H](C(=O)N[C@@H](CC(C)C)C(=O)N1CCC[C@H]1C(=O)N[C@@H](CCCNC(=N)N)C(=O)N[C@H](C(=O)N[C@@H](CCC(=O)O)C(=O)N[C@H](C(=O)NCC(=O)N1CCC[C@H]1C(=O)N[C@@H](CCC(=O)O)C(=O)N[C@@H](CO)C(=O)N1CCC[C@H]1C(=O)O)[C@@H](C)O)[C@@H](C)O)[C@@H](C)O (H-EASELSTAALGRLSAELHELATLPRTETGPESP-OH)
2 | 429 | 7 | ≥ 200 | ≥ 200 | ≥ 200 | ≥ 200 | ≥ 200 | ≥ 200 |  |  |  |  | CC[C@H](C)[C@H](NC(=O)[C@H](CCC(=O)O)NC(=O)[C@H](CO)NC(=O)[C@H](C)NC(=O)[C@H](CCC(=O)O)NC(=O)CCCCCCCCCCCCCCCCC(=O)O)C(=O)N[C@@H](CO)C(=O)N[C@H](C(=O)N[C@@H](C)C(=O)N[C@@H](C)C(=O)N[C@@H](CC(C)C)C(=O)NCC(=O)N[C@@H](CCCNC(=N)N)C(=O)N[C@@H](CC(C)C)C(=O)N[C@@H](CO)C(=O)N[C@@H](C)C(=O)N[C@@H](CCC(=O)O)C(=O)N[C@@H](CC(C)C)C(=O)N[C@@H](Cc1cnc[nH]1)C(=O)N[C@@H](CCC(=O)O)C(=O)N[C@@H](CC(C)C)C(=O)N[C@@H](C)C(=O)N[C@H](C(=O)N[C@@H](CC(C)C)C(=O)N1CCC[C@H]1C(=O)N[C@@H](CCCNC(=N)N)C(=O)N[C@H](C(=O)N[C@@H](CCC(=O)O)C(=O)N[C@H](C(=O)NCC(=O)N1CCC[C@H]1C(=O)N[C@@H](CCC(=O)O)C(=O)N[C@@H](CO)C(=O)N1CCC[C@H]1C(N)=O)[C@@H](C)O)[C@@H](C)O)[C@@H](C)O)[C@@H](C)O ({C18 diacid}-EASEISTAALGRLSAELHELATLPRTETGPESP-NH2)
3 |  | 16 | ≥ 200 | ≥ 200 | ≥ 200 | ≥ 200 | ≥ 200 | ≥ 200 | 8 | ≥ 200 | ≥ 200 |  | CC(C)C[C@H](NC(=O)[C@H](CCC(=O)O)NC(=O)[C@H](Cc1cnc[nH]1)NC(=O)[C@H](CC(C)C)NC(=O)[C@H](CCC(=O)O)NC(=O)[C@H](C)NC(=O)[C@H](CO)NC(=O)[C@H](CC(C)C)NC(=O)[C@H](CCCCN)NC(=O)CNC(=O)[C@H](CC(C)C)NC(=O)[C@@H](NC(=O)[C@H](C)NC(=O)[C@@H](NC(=O)[C@H](CO)NC(=O)[C@H](CC(C)C)NC(=O)[C@H](CCC(=O)O)NC(=O)[C@H](CO)NC(=O)[C@H](C)NC(=O)[C@H](CCC(=O)O)NC(=O)CCCCCCCCCCCCCCCCC(=O)O)[C@@H](C)O)C(C)C)C(=O)N[C@@H](C)C(=O)N[C@H](C(=O)N[C@@H](CC(C)C)C(=O)N1CCC[C@H]1C(=O)N[C@@H](CCCCN)C(=O)N[C@H](C(=O)N[C@@H](CCC(=O)O)C(=O)N[C@H](C(=O)NCC(=O)N1CCC[C@H]1C(=O)N[C@@H](CCC(=O)O)C(=O)N[C@@H](CO)C(=O)N1CCC[C@H]1C(N)=O)[C@@H](C)O)[C@@H](C)O)[C@@H](C)O ({C18 diacid}-EASELSTAVLGKLSAELHELATLPKTETGPESP-NH2)
4 | 92000 |  | ≥ 200 | ≥ 200 | ≥ 200 | ≥ 200 | ≥ 200 | ≥ 200 |  |  |  |  | CC(C)C[C@H](NC(=O)[C@H](C)NC(=O)[C@H](C)NC(=O)[C@@H](NC(=O)[C@H](CO)NC(=O)[C@H](CC(C)C)NC(=O)[C@H](CCC(=O)O)NC(=O)[C@H](CO)NC(=O)[C@H](C)NC(=O)CC[C@H](NC(=O)CCCCCCCCCCCCCCCCCCC(=O)O)C(=O)O)[C@@H](C)O)C(=O)NCC(=O)N[C@@H](CCCNC(=N)N)C(=O)N[C@@H](CC(C)C)C(=O)N[C@@H](CO)C(=O)N[C@@H](C)C(=O)N[C@@H](CCC(=O)O)C(=O)N[C@@H](CC(C)C)C(=O)N[C@@H](Cc1cnc[nH]1)C(=O)N[C@@H](CCC(=O)O)C(=O)N[C@@H](CC(C)C)C(=O)N[C@@H](C)C(=O)N[C@H](C(=O)N[C@@H](Cc1ccc(O)cc1)C(=O)N1CCC[C@H]1C(=O)N[C@@H](CCCNC(=N)N)C(=O)N[C@H](C(=O)N[C@@H](CCC(=O)O)C(=O)N[C@H](C(=O)NCC(=O)N[C@@H](CO)C(=O)NCC(=O)N[C@@H](CO)C(=O)N[C@@H](Cc1ccc(O)cc1)C(=O)O)[C@@H](C)O)[C@@H](C)O)[C@@H](C)O ({C20 diacid-γGlu}-ASELSTAALGRLSAELHELATYPRTETGSGSY-OH)
5 |  | 33 | ≥ 200 | ≥ 200 | ≥ 200 | ≥ 200 | ≥ 200 | ≥ 200 | 27 | ≥ 200 |  | 30 | CC(C)C[C@H](NC(=O)[C@H](C)NC(=O)[C@H](C)NC(=O)[C@@H](NC(=O)[C@H](CO)NC(=O)[C@H](CC(C)C)NC(=O)[C@H](CCC(=O)O)NC(=O)[C@H](CO)NC(=O)[C@H](C)NC(=O)CC[C@H](NC(=O)CCCCCCCCCCCCCCCCCCC(=O)O)C(=O)O)[C@@H](C)O)C(=O)NCC(=O)N[C@@H](CCCNC(=N)N)C(=O)N[C@@H](CC(C)C)C(=O)N[C@@H](CO)C(=O)N[C@@H](C)C(=O)N[C@@H](CCC(=O)O)C(=O)N[C@@H](CC(C)C)C(=O)N[C@@H](Cc1cnc[nH]1)C(=O)N[C@@H](CCC(=O)O)C(=O)N[C@@H](CC(C)C)C(=O)N[C@@H](CO)C(=O)N[C@H](C(=O)N[C@@H](Cc1ccc(O)cc1)C(=O)N1CCC[C@H]1C(=O)N[C@@H](CCCNC(=N)N)C(=O)N[C@H](C(=O)N[C@@H](CCC(=O)O)C(=O)N[C@H](C(=O)NCC(=O)N[C@@H](CO)C(=O)NCC(=O)N[C@@H](CO)C(=O)N1CCC[C@H]1C(N)=O)[C@@H](C)O)[C@@H](C)O)[C@@H](C)O ({C20 diacid-γGlu}-ASELSTAALGRLSAELHELSTYPRTETGSGSP-NH2)
6 |  | 37 | ≥ 200 | ≥ 200 | ≥ 200 | ≥ 200 | ≥ 200 | ≥ 200 |  |  |  | 42 | CC(C)C[C@H](NC(=O)[C@H](CO)NC(=O)[C@H](C)NC(=O)[C@@H](NC(=O)[C@H](CO)NC(=O)[C@H](CC(C)C)NC(=O)[C@H](CCC(=O)O)NC(=O)[C@H](CO)NC(=O)[C@H](C)NC(=O)CC[C@H](NC(=O)CCCCCCCCCCCCCCCCCCC(=O)O)C(=O)O)[C@@H](C)O)C(=O)NCC(=O)N[C@@H](CCCNC(=N)N)C(=O)N[C@@H](CC(C)C)C(=O)N[C@@H](CO)C(=O)N[C@@H](C)C(=O)N[C@@H](CCC(=O)O)C(=O)N[C@@H](CC(C)C)C(=O)N[C@@H](Cc1cnc[nH]1)C(=O)N[C@@H](CCC(=O)O)C(=O)N[C@@H](CC(C)C)C(=O)N[C@@H](C)C(=O)N[C@H](C(=O)N[C@@H](Cc1ccc(O)cc1)C(=O)N1CCC[C@H]1C(=O)N[C@@H](CCCNC(=N)N)C(=O)N[C@H](C(=O)N[C@@H](CCC(=O)O)C(=O)N[C@H](C(=O)NCC(=O)N[C@@H](CO)C(=O)NCC(=O)N[C@@H](CO)C(=O)N[C@@H](Cc1ccc(O)cc1)C(N)=O)[C@@H](C)O)[C@@H](C)O)[C@@H](C)O ({C20 diacid-γGlu}-ASELSTASLGRLSAELHELATYPRTETGSGSY-NH2)
